Source: patent publication US4775673A, “Substituted acylpiperazinoquinazolines and pharmaceutical compositions containing same” (priority 1983, dated 1988)
Structures can show the parent of a compound that is named as a salt.

How the values were obtained:
hypertension = conditions: prior art; cited from earlier work
[1] = prior art; cited from earlier work
[2] = system: post-synaptic alpha1 -adrenergic receptors; conditions: prior art; cited from earlier work
[3] = acute toxicity assay in rats; conditions: rat, in vivo, iv
DOCA-hypertensive rats = experiment: blood pressure reduction in nonanesthetized (conscious) DOCA-hypertensive rats; assay type: in vivo, rat
Procedure: (§1) Of particular interest in this respect are the compounds of formula I above. The hydrochlorides of these compounds afford up to more than 15% aqueous solutions. […] In addition, the compounds of formula I are extremely non-toxic.
(§2) A typical, highly advantageous compound of the invention is the corresponding 2-methyloxypropionyl derivative of formula I, in which n is 0 and both R and R1 are methyl groups. In nonanesthesized (conscious) DOCA-hypertensive rats, this compound in an oral dose of 1 mg/kg elicits a blood pressure reduction of 20%. A dramatic reduction in blood pressure, as much as 40-50%, is observed in the same animals at a dose of 10 mg/kg p.o. Similarly, in non-anesthesized normotensive monkeys (Macaca mulatta), a dose of 3 mg/kg p.o. reduces the blood pressure by 20%. A dose of 25 mg/kg p.o. reduces blood pressure by 35 to 50% for a period of 7 to 9 hours. An intravenous administration of 2.5 mg/kg as a bolus to monkeys reduces blood pressure by 30 to 50% for 1 hour. A similar administration of 10 mg/kg i.v. elicits a blood pressure reduction of 50 to 70% for more then 7 hours. In rabbits anesthesized by pentobarbital, a dose of 25 mg/kg p.o. reduces blood pressure by 20 to 40% for a period of 4 to 5 hours. In non-anesthesized rabbits, a dose as low as 0.1 mg/kg i.v. elicits a transient but significant blood pressure reduction of almost 20%, shortly after administration. […]

[4] = system: normotensive monkeys (Macaca mulatta); experiment: blood pressure reduction in non-anesthetized normotensive monkeys; assay type: in vivo; conditions: for duration of blood pressure reduction: monkeys
Procedure: as §1
A typical, highly advantageous compound of the invention is the corresponding 2-methyloxypropionyl derivative of formula I, in which n is 0 and both R and R1 are methyl groups. In nonanesthesized (conscious) DOCA-hypertensive rats, this compound in an oral dose of 1 mg/kg elicits a blood pressure reduction of 20%. A dramatic reduction in blood pressure, as much as 40-50%, is observed in the same animals at a dose of 10 mg/kg p.o. Similarly, in non-anesthesized normotensive monkeys (Macaca mulatta), a dose of 3 mg/kg p.o. reduces the blood pressure by 20%. A dose of 25 mg/kg p.o. reduces blood pressure by 35 to 50% for a period of 7 to 9 hours. An intravenous administration of 2.5 mg/kg as a bolus to monkeys reduces blood pressure by 30 to 50% for 1 hour. A similar administration of 10 mg/kg i.v. elicits a blood pressure reduction of 50 to 70% for more then 7 hours. In rabbits anesthesized by pentobarbital, a dose of 25 mg/kg p.o. reduces blood pressure by 20 to 40% for a period of 4 to 5 hours. In non-anesthesized rabbits, a dose as low as 0.1 mg/kg i.v. elicits a transient but significant blood pressure reduction of almost 20%, shortly after administration. A dose of 1 mg/kg i.v. reduces the blood pressure by 20 to 30% for a period of more than 8 hours.

non-anesthesized rabbits = experiment: blood pressure reduction in non-anesthetized rabbits; assay type: in vivo, rabbit
Procedure: as §1, §2

[5] = acute toxicity assay in mice; assay type: in vivo, mouse; conditions: mouse, in vivo, iv, mice
From the text: as §1

mice = experiment: acute toxicity assay in mice; assay type: in vivo, mouse; conditions: acute toxicity assays
From the text: as §1

Row | SMILES | antihypertensive activity (hypertension) | solubility in water [1] | blocking of post-synaptic alpha1-adrenergic receptors [2] | LD50 [3] | blood pressure reduction (DOCA-hypertensive rats; 1 mg/kg oral) | reduction in blood pressure (DOCA-hypertensive rats; 10 mg/kg p.o.) | duration of blood pressure reduction ([4]; 2.5 mg/kg i.v. bolus) | blood pressure reduction ([4]; 3 mg/kg p.o., non-anesthetized monkeys) | duration of blood pressure reduction ([4]; 10 mg/kg i.v.) | blood pressure reduction (non-anesthesized rabbits; 0.1 mg/kg i.v., transient, shortly after administration) | duration of blood pressure reduction (non-anesthesized rabbits; 1 mg/kg i.v.) | LD50 [5] | toxicity (mice)
1 | COc1cc2nc(N3CCN(C(=O)c4ccco4)CC3)nc(N)c2cc1OC [Prazosin, 1-(4-amino-6,7-dimethyoxy2-quinazolinyl)-4-(2-furoyl) piperazine hydrochloride] | highly efficient antihypertensive compound | only slightly soluble in water | blocking the post-synaptic alpha1 -adrenergic receptors |  |  |  |  |  |  |  |  |  | 
2 | COc1cc2nc(N3CCN(C(=O)C(C)OC)CC3)nc(N)c2cc1OC (stereo not shown) [2-methoxypropionyl derivative, 1-(4-amino-6,7-dimethoxy-2-quinazolinyl)-4-(2-methoxyproprionyl)piperazine] |  |  |  | 440 mg/kg | 20% | 40-50% | 1 h | 20% | > 7 h | ~20% | more than 8 hours | 360 mg/kg | extremely low in toxicity
